Measurements taken from the supplement of paper PMC11061612.

Tests used:
Assay in all cases: Bliss excess, mean over the matrix (fraction); higher = more synergy
[1] = tested on: COLO-668 (Small Cell Lung Carcinoma)
Summary of the method: (§1)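 Cell lines grown in DMEM/F12 or RPMI with 10% FBS were plated in 1536-well plates and held 24 hours at 37°C, 5% CO2 before 72 hours of exposure to two-drug dose matrices, with DMSO typically at 0.2%. CellTiter-Glo 2.0 luminescence gave viability, which was converted to inhibition. Vehicle wells were set to 0 and blank wells to 1. Combination Emax is the second-highest inhibition in the matrix, and Bliss excess is the observed combination effect minus the expected EA + EB − EA·EB, where EA and EB are the single-agent effects.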

[2] = tested on: MOLT-4 (T-Lymphoblastic Leukemia)
Summary of the method: as §1

[3] = tested on: Hey (Ovarian Carcinoma)
Summary of the method: as §1

[4] = tested on: COLO-679 (Melanoma)
Summary of the method: as §1

[5] = tested on: Mo-T (Other Blood Carcinomas)
Summary of the method: as §1

[6] = tested on: EJM (Plasma Cell Myeloma)
Summary of the method: as §1

[7] = tested on: SKN (Other Solid Carcinomas)
Summary of the method: as §1

[8] = tested on: KGN (Other Solid Carcinomas)
Summary of the method: as §1

[9] = tested on: ML-2 (Acute Myeloid Leukemia)
Summary of the method: as §1

[10] = tested on: G-401 (Other Solid Carcinomas)
Summary of the method: as §1

[11] = tested on: MV-4-11 (Acute Myeloid Leukemia)
Summary of the method: as §1

[12] = tested on: NCI-H1092 (Small Cell Lung Carcinoma)
Summary of the method: as §1

[13] = tested on: SNU-387 (Hepatocellular Carcinoma)
Summary of the method: as §1

[14] = tested on: NCI-H1355 (Lung Adenocarcinoma)
Summary of the method: as §1

[15] = tested on: HCC1500 (Breast Carcinoma)
Summary of the method: as §1

[16] = tested on: KMRC-1 (Kidney Carcinoma)
Summary of the method: as §1

[17] = tested on: HCC1937 (Breast Carcinoma)
Summary of the method: as §1

[18] = tested on: A4-Fuk (B-Lymphoblastic Leukemia)
Summary of the method: as §1

[19] = tested on: NCI-H1993 (Lung Adenocarcinoma)
Summary of the method: as §1

SMILES	Bliss excess [1]	Bliss excess [2]	Bliss excess [3]	Bliss excess [4]	Bliss excess [5]	Bliss excess [6]	Bliss excess [7]	Bliss excess [8]	Bliss excess [9]	Bliss excess [10]	Bliss excess [11]	Bliss excess [12]	Bliss excess [13]	Bliss excess [14]	Bliss excess [15]	Bliss excess [16]	Bliss excess [17]	Bliss excess [18]	Bliss excess [19]
COc1cccc2c1C(=O)c1c(O)c3c(c(O)c1C2=O)C[C@@](O)(C(=O)CO)C[C@@H]3O[C@H]1C[C@H](N)[C@H](O)[C@H](C)O1 [Doxorubicin] + Cc1cc2ncnn2cc1Nc1ncc2c(n1)n(C1CCOCC1)c(=O)n2C [AZD7648] (first compound max 1 µM, 7x7, partner max 10 µM)	0.0633	0.135	0.13	0.0178	0.0096	0.0833	0.0231	0.0694	0.0281	0.0259	0.137	-0.0037	0.005	0.0337	0.0605	0.0835	0.005	-0.018	-0.0182
COc1cccc(OCCCN)c1-c1cc(Nc2cnc(C#N)cn2)n[nH]1 [Prexasertib] + C=CCn1c(=O)c2cnc(Nc3ccc(N4CCN(C)CC4)cc3)nc2n1-c1cccc(C(C)(C)O)n1 [AZD1775] (first compound max 1 µM, partner max 1 µM)	0.0952	0.0873	0.11	0.0059	0.0023	0.0228	0.0515	0.0615	0.045	0.0612	0.0775	0.031	0.081	-0.0039	0.146	0.0366	-0.0247	-0.0205	0.0596
COc1cccc(OCCCN)c1-c1cc(Nc2cnc(C#N)cn2)n[nH]1 [Prexasertib] + CCc1c2c(nc3ccc(O)cc13)-c1cc3c(c(=O)n1C2)COC(=O)[C@]3(O)CC [SN-38] (first compound max 1 µM, 7x7, partner max 0.3 µM)	-0.0788	-0.0075	-0.0717	-0.111	-0.0465	-0.0446	0.0807	-0.116	-0.007	-0.0398	-0.0107	0.0354	0.0549	0.0231	-0.0269	-0.0247	-0.011	-0.0592	0.055
COc1cccc(OCCCN)c1-c1cc(Nc2cnc(C#N)cn2)n[nH]1 [Prexasertib] + CN(C)CCCOc1ccc(-c2ccc3ncc4c(c3c2)n(C2CCOCC2)c(=O)n4C)cn1 [AZD0156] (first compound max 1 µM, 7x7, partner max 1 µM)	-0.0161	0.0108	-0.0098	0.0127	0.0105	-0.0303	0.0519	-0.0432	0.003	-0.0265	-0.0249	-0.0561	-0.0232	-0.0429	0.0475	-0.0317	0.0409	-0.0593	-0.0768
COc1cccc(OCCCN)c1-c1cc(Nc2cnc(C#N)cn2)n[nH]1 [Prexasertib] + C[C@@H]1COCCN1C2=NC(=NC(=C2)C3(CC3)[S@](=N)(=O)C)C4=C5C=CNC5=NC=C4 [AZD6738] (first compound max 1 µM, 7x7, partner max 10 µM)	0.0269	0.0087	0.007	-0.0836	-0.0463	-0.044	-0.02	-0.0399	-0.0361	0.0399	-0.0356	-0.0568	0.0035	0.0276	0.0568	0.0101	-0.0129	-0.0602	-0.0176
COc1cccc(OCCCN)c1-c1cc(Nc2cnc(C#N)cn2)n[nH]1 [Prexasertib] + Cc1cc2ncnn2cc1Nc1ncc2c(n1)n(C1CCOCC1)c(=O)n2C [AZD7648] (first compound max 1 µM, 7x7, partner max 10 µM)	-0.0459	0.0091	-0.0301	-0.0157	0.0159	-0.0334	-0.0238	-0.0033	-0.0357	-0.0221	-0.0083	-0.0287	-0.0434	-0.0405	0.0354	-0.0152	-0.0594	-0.0989	-0.0683
COc1cccc(OCCCN)c1-c1cc(Nc2cnc(C#N)cn2)n[nH]1 [Prexasertib] + O=C(c1cc(Cc2n[nH]c(=O)c3ccccc23)ccc1F)N1CCN(C(=O)C2CC2)CC1 [Olaparib] (first compound max 1 µM, 7x7, partner max 10 µM)	-0.0759	0.0154	-0.0098	-0.0407	0.0066	-0.0434	-0.0209	-0.031	-0.0006	-0.166	-0.0247	-0.0514	0.0083	-0.0448	-0.004	-0.0411	-0.103	0.0189	-0.0685
